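Five concentrations, 48 hours, 96-well plates. Abbreviation: GI50, concentration required for 50% inhibition of growth.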 The source made the active and inactive calls. Cut-off read from the data, not from the text of the source: active = GI50 up to about 1.1 µM and inactive = higher.
Tests used:
Experiment in all cases: inhibition of tumour cell growth, NCI panel, 48 h
LXFL 529 = tested on: LXFL 529
RPMI-8226 = tested on: RPMI-8226
SNB-19 = tested on: SNB-19
A549 = tested on: A549
SNB-78 = tested on: SNB-78
HCT-15 = tested on: HCT-15
RXF 393 = tested on: RXF 393
UO-31 = tested on: UO-31
SK-MEL-5 = tested on: SK-MEL-5
IGROV-1 = tested on: IGROV-1
DMS-273 = tested on: DMS-273
EKVX = tested on: EKVX
786-0 = tested on: 786-0
OVCAR-5 = tested on: OVCAR-5
KM-20L2 = tested on: KM-20L2
NCI-H460 = tested on: NCI-H460
HOP-62 = tested on: HOP-62
HL-60 = tested on: HL-60
OVCAR-4 = tested on: OVCAR-4
NCI-H522 = tested on: NCI-H522
SF-539 = tested on: SF-539
Malme-3M = tested on: Malme-3M
OVCAR-3 = tested on: OVCAR-3
DLD-1 = tested on: DLD-1
CCRF-CEM = tested on: CCRF-CEM
SNB-75 = tested on: SNB-75
DMS-114 = tested on: DMS-114
KM12 = tested on: KM12
SN12C = tested on: SN12C
HT-29 = tested on: HT-29
MOLT-4 = tested on: MOLT-4
SK-OV-3 = tested on: SK-OV-3
SK-MEL-2 = tested on: SK-MEL-2
M19-MEL = tested on: M19-MEL
U-251 = tested on: U-251
SW-620 = tested on: SW-620
A498 = tested on: A498
SK-MEL-28 = tested on: SK-MEL-28
COLO 205 = tested on: COLO 205
HOP-18 = tested on: HOP-18
UACC-257 = tested on: UACC-257
CAKI-1 = tested on: CAKI-1
SF-295 = tested on: SF-295
M14 = tested on: M14
SF-268 = tested on: SF-268
OVCAR-8 = tested on: OVCAR-8
UACC-62 = tested on: UACC-62
NCI-H23 = tested on: NCI-H23
ACHN = tested on: ACHN
K562 = tested on: K562
LOX IMVI = tested on: LOX IMVI
HOP-92 = tested on: HOP-92
XF498 = tested on: XF498

## Cc1cc(NS(=O)(=O)c2ccc(NC(=O)c3cccc4c(Nc5ccc(S(=O)(=O)Nc6cc(C)on6)cc5)c5ccccc5nc34)cc2)no1
LXFL 529
  GI50: 24.7 µM (inactive)
RPMI-8226
  GI50: 64.4 µM (inactive)
SNB-19
  GI50: 32.7 µM (inactive)
A549
  GI50: > 100 µM (inactive)
SNB-78
  GI50: 35.1 µM (inactive)
HCT-15
  GI50: > 100 µM
RXF 393
  GI50: 25.8 µM (inactive)
UO-31
  GI50: 38.7 µM (inactive)
SK-MEL-5
  GI50: 69.2 µM (inactive)
IGROV-1
  GI50: 27.7 µM (inactive)
DMS-273
  GI50: > 100 µM (inactive)
EKVX
  GI50: > 100 µM (inactive)
786-0
  GI50: 33 µM (inactive)
OVCAR-5
  GI50: > 100 µM (inactive)
KM-20L2
  GI50: > 100 µM (inactive)
NCI-H460
  GI50: > 100 µM (inactive)
HOP-62
  GI50: 47.8 µM (inactive)
HL-60
  GI50: 23.7 µM (inactive)
OVCAR-4
  GI50: 17.2 µM (inactive)
NCI-H522
  GI50: 20 µM (inactive)
SF-539
  GI50: 27.4 µM (inactive)
Malme-3M
  GI50: > 100 µM (inactive)
OVCAR-3
  GI50: 87.3 µM (inactive)
DLD-1
  GI50: > 100 µM (inactive)
CCRF-CEM
  GI50: 35.6 µM (inactive)
SNB-75
  GI50: 22.3 µM (inactive)
DMS-114
  GI50: 35.2 µM (inactive)
KM12
  GI50: > 100 µM (inactive)
SN12C
  GI50: 39.4 µM (inactive)
HT-29
  GI50: > 100 µM (inactive)
MOLT-4
  GI50: 34.1 µM (inactive)
SK-OV-3
  GI50: > 100 µM (inactive)
SK-MEL-2
  GI50: 30.3 µM (inactive)
M19-MEL
  GI50: 35.8 µM (inactive)
U-251
  GI50: 30.5 µM (inactive)
SW-620
  GI50: > 100 µM (inactive)
A498
  GI50: 68.9 µM (inactive)
SK-MEL-28
  GI50: 40.3 µM (inactive)
COLO 205
  GI50: 62.4 µM (inactive)
HOP-18
  GI50: 19.4 µM (inactive)
UACC-257
  GI50: > 100 µM (inactive)
CAKI-1
  GI50: 70.1 µM (inactive)
SF-295
  GI50: > 100 µM (inactive)
M14
  GI50: 72.6 µM (inactive)
SF-268
  GI50: 34.7 µM (inactive)
OVCAR-8
  GI50: 70.3 µM (inactive)
UACC-62
  GI50: 17.5 µM (inactive)
NCI-H23
  GI50: 44.5 µM (inactive)
ACHN
  GI50: > 100 µM (inactive)
K562
  GI50: 36.6 µM (inactive)
LOX IMVI
  GI50: 30.5 µM (inactive)
HOP-92
  GI50: 17.5 µM (inactive)
XF498
  GI50: 42.3 µM (inactive)
